# Patent US11478466B2, “Small molecule promoting osteoblast differentiation” (Cornell University, priority 2019, dated 2022)
# What was measured:
# [1] = tested on: alkaline phosphatase (ALP); assay: ALP expression staining in C2C12 cells; format: cell-based, mouse; details: for ALP expression by staining: C2C12, 2 days, 10 μM
# Protocol: C2C12 cells were treated for 2 days with 10 μM DIPQUO or structural analogs, 1 ng/ml rhBMP4, or with inhibitors as noted in figure legends, and then fixed briefly in 70% acetone/10% formaldehyde/20% citrate. Staining was achieved using the leukocyte alkaline phosphatase kit (Sigma 86R-1KT) according to the manufacturer's instructions. Expression of ALP was confirmed and quantified by flow cytometric analysis, using an Accuri C6 flow cytometer. Briefly, control- or DIPQUO-treated C2C12 cells were detached and harvested on day 2 using PBS-based enzyme-free cell detachment solution (ThermoFisher). 2×10^5 cells were incubated on ice for 30 minutes with 10 μl APC-conjugated ALPL antibody (R&D Systems), and washed in ice-cold PBS before analysis. Live cells were gated and analyzed in CFlow Plus software and then data was converted to FlowJo to achieve publication-level resolution. For siRNA experiments, gene-specific oligonucleotides were obtained for mouse p38-alpha (Cell Signaling) and p38-beta (Santa Cruz). Signal Silence scramble siRNA control oligonucleotide was purchased from Cell Signaling. C2C12 cells at 70% confluency were transfected in 12-well plates using Lipofectamine RNAiMax reagent (Invitrogen) according to manufacturer's instructions. Transfected cells were treated 24 hours later with DMSO or 10 μM DIPQUO, and siRNA transfection was repeated after 48 hours without changing culture media. After an additional 3 days, cells were either fixed and stained for ALP expression or analyzed for ALP activity using the AttoPhos Substrate kit. Hemagglutinin and FLAG epitope-tagged MKK3 (pMT2-HA-MKK3) and MKK6 (pcDNA3-FLAG-MKK6) constructs were obtained from Addgene and transfected into C2C12 cells using Lipofectamine LTX with Plus Reagent (ThermoFisher) according to manufacturer's instructions and cell extracts analyzed for protein expression and activity as described below.
# [2] = tested on: alkaline phosphatase (ALP); details: for RFU Score (10 μM): 154-analog library, C2C12, duplicate
# [3] = tested on: alkaline phosphatase (ALP); assay: cells; details: Mus musculus; for activation at 10 µM: C2C12, 96 h
SMILES,RFU Score (10 μM) [2],activation at 10 µM [3],other results
COC(=O)c1cc2cc(Cl)ccc2[nH]c1=O [BT344],–,–,"ALP expression by staining [1]: inert; Fluo. Z Score ([2]; SAR of library and proprietary analogs, AttoPhos assay, C2C12): 0.61 ± 0.47; EC50 ([3]; C2C12): 920 nM"
O=C(O)c1cc2cc(Cl)ccc2[nH]c1=O [BT345],–,–,ALP expression by staining [1]: inert
"c1ccc2c(-c3cnn4cc(-c5ccc(N6CCNCC6)cc5)cnc34)ccnc2c1 [LDN193189, reference compound]",–,–,"effect of inhibitor on BMP-driven ALP expression (staining) ([1]; C2C12, co-treatment with BMP): attenuated BMP activation of ALP expression"
O=C(c1[nH]cnc1-c1ccccc1)N1CCC(Oc2ccccc2)C1 (stereo not drawn) [RU-0424523],419,4.84%,–
O=C(c1[nH]cnc1-c1ccccc1)N(Cc1cocn1)Cc1cocn1 [RU-0424524],549,9.42%,–
Cc1cc(C)c2[nH]c(=O)c(CN3CCN(Cc4noc(C)n4)CC3)cc2c1 [RU-0424525],563,9.94%,–
CCn1nc(C(=O)O)c2c1CCN(C(=O)c1[nH]cnc1-c1ccccc1)C2 [RU-0424526],545,9.28%,–
CN(C)C1=NC2(CCN(C(=O)c3[nH]cnc3-c3ccccc3)CC2)C(=O)N1 [RU-0424527],575,10.5%,–
CO[C@@]12CC[C@H](O)C[C@@H]1N(Cc1cc3cc(C)cc(C)c3[nH]c1=O)CC2 [RU-0424528],538,9.03%,–
CN(CC1COCCO1)C(=O)c1ccc(-c2[nH]cnc2-c2ccccc2)cc1 (stereo not drawn) [RU-0424529],504,7.85%,–
Cc1cc(C)c2[nH]c(=O)c(CN3CCCC[C@H](N(C)C)C3)cc2c1 [RU-0424530],524,8.55%,–
O=C(c1[nH]cnc1-c1ccccc1)N1CCOC(c2ccc(F)cc2)C1 (stereo not drawn) [RU-0424531],478,6.93%,–
Cc1cc(C)c2[nH]c(=O)c(CN(C)Cc3ncccc3C)cc2c1 [RU-0424532],627,12.2%,–
O=C(NCc1nnc2ccccn12)c1[nH]cnc1-c1ccccc1 [RU-0424533],607,11.5%,–
CC(C)CN(C)[C@H]1CN(C(=O)c2[nH]cnc2-c2ccccc2)C[C@@H]1O [RU-0424534],638,12.6%,–
Cc1cc(C)c2[nH]c(=O)c(CN3C[C@H]4C(=O)NC[C@@]4(C(=O)O)C3)cc2c1 [RU-0424535],518,8.32%,–
Cc1cc(C)c2[nH]c(=O)c(CN3CCCC(c4ncc[nH]4)C3)cc2c1 (stereo not drawn) [RU-0424536],516,8.27%,–
CNC(=O)[C@@H]1C[C@@H](N)CN1Cc1cc2cc(C)cc(C)c2[nH]c1=O [RU-0424537],513,8.16%,–
O=S(=O)(Nc1ncc(-c2[nH]cnc2-c2ccccc2)cn1)c1ccccc1 [RU-0424538],533,8.87%,–
Cc1cc(C)c2[nH]c(=O)c(-c3nccn3CCCN(C)C)cc2c1 [RU-0424539],565,10%,–

SMILES,RFU Score (10 μM) [2],activation at 10 µM [3],other results
c1ccc(-c2nc[nH]c2-c2cnc(N3CCOCC3)s2)cc1 [RU-0424540],603,11.4%,–
Cc1cc(C)c2[nH]c(=O)c(C3CC(=O)Nc4[nH]nc(C(=O)O)c43)cc2c1 (stereo not drawn) [RU-0424541],646,12.9%,–
CO[C@@]12CC[C@@H](O)C[C@@H]1N(Cc1cc3cc(C)cc(C)c3[nH]c1=O)CC2 [RU-0424542],641,12.7%,–
Cc1cc(C)c2[nH]c(=O)c(-c3nccn3C(C)Cn3nc(C)cc3C)cc2c1 (stereo not drawn) [RU-0424543],363,2.86%,–
c1ccc(-c2nc(-c3[nH]cnc3-c3ccccc3)cs2)cc1 [RU-0424544],450,5.93%,–
COc1cccc(-c2[nH]cnc2-c2ccccc2)c1OCCCN(C)C [RU-0424545],433,5.33%,–
Cc1cc(C)c2[nH]c(=O)c(CN3CCCn4cncc4C3)cc2c1 [RU-0424546],460,6.3%,–
Cc1c(-c2[nH]cnc2-c2ccccc2)c2ccccc2n1CC(N)=O [RU-0424547],518,8.34%,–
O=C(NC1CC(=O)N(Cc2ccc(F)cc2)C1)c1[nH]cnc1-c1ccccc1 (stereo not drawn) [RU-0424548],467,6.54%,–
Cc1cc(C)c2[nH]c(=O)c(-c3ncc[nH]3)cc2c1 [RU-0424549],445,5.75%,–
Cc1cc(C)c2[nH]c(=O)c(CN3CCN(C)[C@@H]4CS(=O)(=O)C[C@@H]43)cc2c1 [RU-0424550],304,0.78%,–
O=C(c1[nH]cnc1-c1ccccc1)N1CCCC(c2ccn[nH]2)C1 (stereo not drawn) [RU-0424551],452,6%,–
O=C(NCCc1nnc2n1CCNCC2)c1[nH]cnc1-c1ccccc1 [RU-0424552],485,7.18%,–
Cc1cc(C)c2[nH]c(=O)c(CN3CCC(NS(C)(=O)=O)CC3)cc2c1 [RU-0424553],454,6.08%,–
CCN(C)Cc1cc2n(n1)CCN(C(=O)c1[nH]cnc1-c1ccccc1)C2 [RU-0424554],409,4.5%,–
O=C(O)CCc1cc2n(n1)CCN(C(=O)c1[nH]cnc1-c1ccccc1)C2 [RU-0424555],443,5.68%,–
NS(=O)(=O)CC1CCN(C(=O)c2[nH]cnc2-c2ccccc2)C1 (stereo not drawn) [RU-0424556],435,5.4%,–
COc1cc2c(cc1O)NC(=O)CC2c1cc2cc(C)cc(C)c2[nH]c1=O (stereo not drawn) [RU-0424557],430,5.24%,–
COC(=O)[C@H]1C[C@@H](O)CCN1Cc1cc2cc(C)cc(C)c2[nH]c1=O [RU-0424558],399,4.15%,–
"C[C@@H]1CN(Cc2ccc(F)cc2)[C@@H](C)CN1C(=O)c1cc2c(C(=O)C(=O)N(C)C)cn(C)c2cc1Cl [SCI0469, reference compound]",–,–,"effect of inhibitor on DIPQUO-driven ALP expression (staining) ([1]; C2C12, co-treatment with DIPQUO): attenuated ALP expression in DIPQUO-treated cells"
